Data reported in US20040242639A1, “Phospholipase C inhibitors for use in treating inflammatory disorders” (priority 2003, published 2004).
pIC50: −log10 of the molar value.

Target: T1, human PLC-β2 (Homo sapiens, UniProt Q00722)
T1 construct: made in house; host or cells: Sf9 cells (Spodoptera frugiperda), recombinant baculovirus
Assay: PLC assay using FlashPlates (immobilized [3H]PIP2 hydrolysis)
Type: biochemical
Settings: for inhibition at 10 µM: read-out: %; for pIC50: 96-well Phospholipid FlashPlates coated with [3H]PIP2, purified recombinant human PLC-β2 or cytosolic human PLC-β2
Excerpt: The hydrolysis of phosphatidylinositol-4,5-bisphosphate (PIP2) by a specific phospholipase C-β2 (PLC-β2) produces two intracellular messengers, diacylglycerol (DAG) and inositol 1,4,5-trisphosphate ([…]), which mediate the activation of protein kinase C and intracellular Ca^2+ release. A conventional organic solvent extraction method is widely used for PLC assays to isolate IP3 from the substrate […]. The conventional PLC-β2 assay, however is terminated by addition of acidified organic solvents and subsequent extraction and phase separation. […] Accordingly, a preferred method to test the compounds of the present invention, was developed utilizing a 96-well plate assay for PLC-β2 using immobilized radiolabeled substrate to quantitatively measure the reduction in the substrate level without a need for organic solvent extraction. The automated PLC-β2 assay described herein provides a convenient method for quantitative measurement of phospholipase C activities in a high throughput fashion.
Ninety-six well Phospholipid FlashPlates were coated with 0.2 mL of 50 mM Tris/HCl (pH 7.4), 0.01% Ac-BSA and 50,000 cpm of ^[3H]PIP2 (phosphatidylinositol-4,5-bisphosphate) at 4° C. for 72 h. The wells were aspirated and washed twice with PBS. The reactions were conducted directly in the wells in PLC reaction buffer containing 50 mM Tris/HCl (pH 7.2), 2.75 mM EDTA (pH 7.3), 80 mM KCl, 10 mM LiCl, 0.04% DOC and 2 mM CaCl2 in the absence or presence of the purified recombinant human PLC-β2 (prepared as described hereafter) or cytosolic human PLC-β2 from […]. Reduction of radioactivity was monitored by a Packard TopCount instrument (Packard Instrument Company, Conn., USA).
Suspension cultures of Sf9 cells were maintained in a spinner flask at 27° C. and stirred at 90 rpm. The cells were grown in Grace's media supplemented with 10% (v/v) fetal bovine serum, 3.3 g/l yeastolate, 3.3 g/l lactalbumin hydrosylate, glutamine (6.4 mM final), […] gentamicin, and 50 µg/ml kanamycin. Suspension of Sf9 cells (1.0×10^6 cells/ml) were infected with 5 pfu/cell of recombinant baculovirus encoding PLC-β2 and incubated at 27° C. for 72 h. The cells were collected by centrifugation (500×g, 7 min, 4° C.) and disrupted by hypotonic lysis buffer containing 20 mM Tris/HCl, pH 7.4, 5 mM MgCl2, 2 mM EGTA, 200 μM PMSF, 200 μM benzamidine and 1 μM pepstatin A. The lysate was sonicated on ice and the nuclei and unbroken cells removed by centrifugation (500×g, 5 min, 4° C.). The supernatant was recovered and clarified by centrifugation (34,000 rpm, 60 min, 4° C.). The supernatant was used as a crude cytosolic fraction (Paterson, A., Boyer, J. L., Watts, V. J., Morris, A. J., Price, E. M., Harden, T. K. (1995) Concentration of enzyme-dependent activation of PLC β1 and PLC β2 by Gα11 and βγ subunits. Cellular Signalling 7, 709-720).
Crude cytosol prepared from Sf9 cells expressing PLC-β2 was purified initially by chromatography on a 10 ml column of Q-Sepharose FF, equilibrated in buffer A (25 mM HEPES, pH 7.2,2 mM DTT, 2mM EDTA, 2 mM EGTA, 200 μM PMSF, 200 μM benzamidine, 1 μM pepstatin A containing 10 mM NaCl). […]

T1 sequence (Q00722 whole entry): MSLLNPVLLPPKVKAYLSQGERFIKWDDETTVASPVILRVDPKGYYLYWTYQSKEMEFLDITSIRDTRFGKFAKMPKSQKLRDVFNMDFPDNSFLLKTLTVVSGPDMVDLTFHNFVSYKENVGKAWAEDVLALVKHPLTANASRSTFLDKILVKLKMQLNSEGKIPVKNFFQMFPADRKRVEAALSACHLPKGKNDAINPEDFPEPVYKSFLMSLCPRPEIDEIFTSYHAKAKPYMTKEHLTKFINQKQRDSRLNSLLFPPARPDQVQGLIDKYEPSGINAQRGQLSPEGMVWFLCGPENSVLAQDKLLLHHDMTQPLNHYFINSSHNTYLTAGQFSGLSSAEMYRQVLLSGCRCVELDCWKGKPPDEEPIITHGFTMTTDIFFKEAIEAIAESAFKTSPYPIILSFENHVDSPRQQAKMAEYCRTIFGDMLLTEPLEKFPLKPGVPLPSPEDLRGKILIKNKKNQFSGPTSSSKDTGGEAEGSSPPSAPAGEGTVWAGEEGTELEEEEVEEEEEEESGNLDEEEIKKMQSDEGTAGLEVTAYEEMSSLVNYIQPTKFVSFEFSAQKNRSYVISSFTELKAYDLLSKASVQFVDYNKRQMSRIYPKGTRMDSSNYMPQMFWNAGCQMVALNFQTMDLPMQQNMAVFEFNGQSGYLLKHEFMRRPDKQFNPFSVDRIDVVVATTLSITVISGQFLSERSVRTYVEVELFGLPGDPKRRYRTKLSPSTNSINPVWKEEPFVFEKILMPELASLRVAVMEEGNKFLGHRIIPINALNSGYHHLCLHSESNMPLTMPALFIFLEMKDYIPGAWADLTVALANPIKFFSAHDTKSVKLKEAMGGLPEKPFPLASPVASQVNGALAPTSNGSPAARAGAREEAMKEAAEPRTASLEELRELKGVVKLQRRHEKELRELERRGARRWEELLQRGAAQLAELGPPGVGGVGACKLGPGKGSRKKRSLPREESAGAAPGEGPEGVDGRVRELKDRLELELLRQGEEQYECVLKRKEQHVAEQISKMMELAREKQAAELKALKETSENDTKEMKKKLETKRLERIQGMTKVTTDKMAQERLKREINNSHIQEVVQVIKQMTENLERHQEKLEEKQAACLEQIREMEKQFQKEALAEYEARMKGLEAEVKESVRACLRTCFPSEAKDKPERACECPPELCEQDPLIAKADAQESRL

| Structure (SMILES) | inhibition at 10 µM [%] | pIC50 |
| --- | --- | --- |
| NC(=O)c1ccc(N2CCC(=C(c3ccccc3)c3ccccc3)CC2)c(NC(=O)Nc2ccccc2)c1 [Cpd 7, 4-[4-(diphenylmethylene)-1-piperidinyl]-3-[[(phenylamino)carbonyl]amino]-benzamide] | 49.8 |  |
| NC(=O)c1ccc(N2CCC(c3ccccc3)CC2)c(NC(=O)Nc2ccc3c(c2)OCO3)c1 [Cpd 3, 3-[[(1,3-benzodioxol-5-ylamino)carbonyl]amino]-4-(4-phenyl-1-piperidinyl)-benzamide] |  | 4.96 |
| NC(=O)c1ccc(N2CCC(C(c3ccccc3)c3ccccc3)CC2)c(NC(=O)Nc2ccccc2)c1 [Cpd 6, 4-[4-(diphenylmethyl)-1-piperidinyl]-3-[[(phenylamino)carbonyl]amino]-benzamide] | 60.7 |  |
| NC(=O)c1ccc(N2CCC(Cc3ccccc3)CC2)c(NC(=O)Nc2ccccc2)c1 [Cpd 1, 3-[[(phenylamino)carbonyl]amino]-4-[4-(phenylmethyl)-1-piperidinyl]-benzamide] |  | 5.47 |
| NC(=O)c1ccc(N2CCC(c3ccccc3)CC2)c(NC(=O)Nc2ccccc2)c1 [Cpd 2, 3-[[(phenylamino)carbonyl]amino]-4-(4-phenyl-1-piperidinyl)-benzamide] |  | 5.15 |
